# Where two headings read alike, the source gives them in different places.
# Key:
# [1] = test system: Plasmopara viticola; experiment: Prophylactic leaf treatment of grapevines in the hothouse against Plasmopara viticola; format: in vivo
# How it was run: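 Grapevines (5–8 leaves) sprayed to runoff with compound as 20% spray powder, then after drying inoculated on leaf undersides with sporangial suspension (~20,000/ml). Incubated at 22–24 °C, saturated humidity, 3–4 days normal humidity (30–70%), then one day saturated; activity from mean % infested leaf area per treatment.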
# [2] = test system: Fusarium nivale; experiment: Treatment of rye seeds against Fusarium nivale; format: in vivo; settings: 100 g/100 kg; about 4 weeks
# Procedure: Treatment of rye seeds against Fusarium nivale
# Rye seeds with a natural infestation by Fusarium nivale were seeded in earth filled pots and left for germination at about 6° C. Part of the seeds was treated before seeding with the active agents as appears from the subsequent table and part was untreated. After emergence of the seedlings the plants were illuminated with artificial light for 12 hours each day. After about 4 weeks the degree of infestation was determined in percentages. The fungicidal activity was calculated on the basis of the following formula: [formula]
# The active agents were used in the form of 20% concentration compositions.
# [3] = test system: Helminthosporium gram
# Procedure: Treatment of barley seeds infested with Helminthosporium gram
# After emergence, the plants were subjected to illumination for 12 hours per day. After about 5 weeks the infested plants were counted and the total number of plants for each test were also counted. The active agents tested were used as pulverulent compositions.
# [4] = test system: Pythium ultimum; experiment: Threshold concentration test for use of the compounds against Pythium ultimum (infested soil, garden peas); format: in vivo; parameters: key to root evaluation (1-4): 4: white roots without fungous necrosis; 3: white roots, minor fungous necrosis; 2: brown roots, already more pronounced fungous necrosis; 1: heavy fungous necrosis, roots rotted; settings: for root evaluation (1-4): 3 weeks; for number of sound peas: 20 grains per dish, 3 weeks at 20-24° C.
# How it was run: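 Pulverulent agents at 20% concentration mixed evenly into soil heavily infested with Pythium ultimum, then garden peas ('Wunder von Kelvedon', 20 per dish) sown at once. After three weeks at 20–24 °C in a hothouse, sound peas counted and roots scored on a 1–4 scale.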
# [5] = test system: Septoria nodorum; experiment: Treatment of oat seeds against Septoria nodorum; format: in vivo; settings: 4 weeks
# Procedure: Effects of the treatment of oat seeds against Septoria nodorum
# They were then seeded on a moist substrate for germination. As a control untreated seeds were likewise seeded. At about 6° C. the seed was incubated in an air-conditioned chamber until after 4 weeks the proportion of diseased seeds could be determined and the activity of the fungicidal compounds was calculated on the basis of the following formula: [formula]
# The active agents were applied in the form of 20% concentration pulverulent compositions.
# [6] = test system: Helminthosporium gramineum; experiment: Seed treatment in open field tests for infestation by Helminthosporium gramineum (barley); format: in vivo
# Procedure: Seed treatment in open field tests for infestation by Helminthosporium gramineum
# The active agents were used in the form of pulverulent compositions. After about 8 months in case of winter barley and after about 3 months in case of summer barley the infested plants were counted and the activity was calculated by the formula [formula]
# [7] = test system: Tilletia caries; experiment: Treatment of oat seeds infested with Tilletia caries (spore germination); format: in vivo
# [8] = test system: Piricularia oryzae; format: in vivo; settings: concentration of active agent 0.1 (percentages); 5 days
# [9] = test system: Fusarium avenaceum; experiment: Threshold concentration test in case of Fusarium avenaceum (infested soil, garden peas); format: in vivo; settings: for number of sound peas: 20 grains per dish, 18 days at 20-24° C.; for root evaluation (1-4): 18 days
# How it was run: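 Soil heavily infested with Fusarium avenaceum was mixed uniformly with a 20% powder formulation of active agent, then sown immediately with 20 garden pea seeds ('Wunder von Kelvedon') per dish. After 18 days in a greenhouse at 20° to 24° C., sound plants were counted and roots scored on a 1–4 scale.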
# [10] = test system: Botrytis cinerea; experiment: Inhibition of fungus in a nutrient solution: Botrytis cinerea; format: cell-based; settings: 6 days at 21-23° C.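 Note: 0 means no fungus growth and higher grades mean more surface covered.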
# [11] = test system: Alternaria solani; experiment: Inhibition of fungus in a nutrient solution: Alternaria solani; format: cell-based; settings: 6 days at 21-23° C.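 Note: 0 means no fungus growth and higher grades mean more surface covered.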
# [12] = test system: root gall nematodes (Meloidogyne sp.); experiment: Threshold concentration test with root gall nematodes (cucumber, infested soil); format: in vivo; settings: 28 days at 24-27° C.
# Description: Threshold concentration test with root gall nematodes (Meloidogyne sp.)
# 20% concentration pulverulent active agents as listed in the table below were mixed in a uniform manner with a soil which had been heavily infested by root gall nematodes. After waiting for 3 days the treated soil was placed in two clay dishes of a capacity of 0.5 liter. 10 grain of cucumber seeds of the type "Guntruud" were placed into each dish.
# Thereafter, the contents of the dishes were permitted to develop at a temperature of 24° to 27° C. for a time of 28 days in a hothouse. The cucumber roots were then washed out and were examined in a water bath regarding nematode infestation. The reduction of the infestation by the active agents as compared with untreated control material was determined in percentages.
# The nematocidal activity was calculated by the formula
# A=the infestation in the untreated control material and
# B=the infestation after treatment.
# [13] = test system: Penicillium digitatum; experiment: Inhibition of fungus in a nutrient solution: Penicillium digitatum; format: cell-based; settings: 6 days at 21-23° C.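 Note: 0 means no fungus growth and higher grades mean more surface covered.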
# [14] = test system: Fusarium avenaceum; experiment: Inhibition of fungus in a nutrient solution: Fusarium avenaceum; format: cell-based; settings: 6 days at 21-23° C.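 Note: 0 means no fungus growth and higher grades mean more surface covered.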
# Procedure: Inhibition of fungus in a nutrient solution
# 20 ml of a nutrient solution of grape juice and water (1:1) were filled into a glass vial of a 100 ml capacity and were mixed with the pulverulent active agents which appear from the subsequent table. Thereafter, the solution was inoculated with conidia (spores) of the test fungi.
# After an incubation time of 6 days at 21° to 23° C. the fungus development on the surface of the nutrient solution was evaluated. The test fungi used were the following: Penicillium digitatum, Botrytis cinerea, Alternaria solani, Fusarium avenaceum.
# The evaluation was carried out at a scale from 0 to 5 as follows: […]
# [15] = test system: Tilletia caries; experiment: Seed treatment in open field tests regarding infestation by Tilletia caries (oats); format: in vivo
# [16] = test system: Ustilago avenae; experiment: Oat seed treatment for Ustilago avenae; format: in vivo; settings: 10 weeks
# [17] = 10 g active agent per 100 kg, about 5 weeks
# [18] = 20 g active agent per 100 kg, about 5 weeks
# [19] = 50 g active agent per 100 kg, about 5 weeks
# [20] = summer barley, 25 g active agent/100 kg barley, about 3 months
# [21] = summer barley, 50 g active agent/100 kg barley, about 3 months
# [22] = summer barley, 100 g active agent/100 kg barley, about 3 months
# [23] = winter barley, 50 g active agent/100 kg barley, about 8 months
# [24] = winter barley, 100 g active agent/100 kg barley, about 8 months
Compound,% activity [2] [%],"% activity [3, 18] [%]","% activity [3, 19] [%]",root evaluation (1-4) ([4]; 20 mg/l soil),number of sound peas ([4]; 20 mg/l soil),root evaluation (1-4) ([4]; 40 mg/l soil),number of sound peas ([4]; 40 mg/l soil),root evaluation (1-4) ([4]; 80 mg/l soil),number of sound peas ([4]; 80 mg/l soil),% activity ([5]; 50 g active agent/100 kg seeds) [%],"% activity [6, 21] [%]","% activity [6, 22] [%]",% activity ([7]; 10 g active agent per 100 kg) [%],% activity ([7]; 20 g active agent per 100 kg) [%],% activity ([7]; 50 g active agent per 100 kg) [%],"% activity [6, 23] [%]","% activity [6, 24] [%]",other results
"C=CCNC(=O)c1nnc(S(=O)(=O)CC)s1 [5-ethylsulfonyl-1,3,4-thiadiazole-2-carboxylic acid-allylamide]",94,100,100,1,11,4,17,4,16,72,100,100,100,100,100,–,–,"% activity ([1]; concentration of active agent 0.001 (unit not given)): 98%; % activity ([1]; concentration of active agent 0.005 (unit not given)): 96%; % activity ([1]; concentration of active agent 0.025 (unit not given)): 99.4%; % activity [3, 17]: 100%; % activity [6, 20]: 97%"
"CCS(=O)(=O)c1nnc(C(=O)N(C)C)s1 [5-ethylsulfonyl-1,3,4-thiadiazole-2-carboxylic acid-dimethylamide]",100,94,100,4,13,4,13,4,15,86,99.5,100,100,100,100,99.5,100,% activity [8]: 90%
"CCS(=O)(=O)c1nnc(C(=O)NC)s1 [5-ethylsulfonyl-1,3,4-thiadiazole-2-carboxylic acid-methylamide]",100,91,97,4,17,4,15,4,19,72,100,100,100,100,100,100,100,–
"CS(=O)(=O)c1nnc(C#N)s1 [5-methylsulfonyl-1,3,4-thiadiazole-2-carbonitrile]",–,–,–,3,17,4,16,4,20,–,–,–,–,–,–,–,–,number of sound peas ([9]; 25 mg/l soil): 18; root evaluation (1-4) ([9]; 25 mg/l soil): 4; number of sound peas ([9]; 50 mg/l soil): 17; root evaluation (1-4) ([9]; 50 mg/l soil): 4; number of sound peas ([9]; 100 mg/l soil): 19; root evaluation (1-4) ([9]; 100 mg/l soil): 4; fungus development on the surface of the nutrient solution (0-5) ([10]; 0.002%): 1; fungus development on the surface of the nutrient solution (0-5) ([10]; 0.004%): 0; fungus development on the surface of the nutrient solution (0-5) ([11]; 0.002%): 0; fungus development on the surface of the nutrient solution (0-5) ([11]; 0.004%): 0; Percentage reduction of infestation ([12]; 50 mg per liter soil): 71%; Percentage reduction of infestation ([12]; 100 mg per liter soil): 88%; Percentage reduction of infestation ([12]; 200 mg per liter soil): 96%; fungus development on the surface of the nutrient solution (0-5) ([13]; 0.002%): 1; fungus development on the surface of the nutrient solution (0-5) ([13]; 0.004%): 0; fungus development on the surface of the nutrient solution (0-5) ([14]; 0.002%): 0; fungus development on the surface of the nutrient solution (0-5) ([14]; 0.004%): 0
"CS(=O)(=O)c1nnc(C(N)=O)s1 [5-methylsulfonyl-1,3,4-thiadiazole-2-carboxamide]",99,100,100,4,16,4,18,4,20,91,100,100,–,–,–,96,100,"% activity ([15]; winter oats, 25 g active agent/100 kg, about 9 months): 100%; % activity ([15]; winter oats, 50 g active agent/100 kg, about 9 months): 100%; % activity ([15]; winter oats, 100 g active agent/100 kg, about 9 months): 100%; % activity [3, 17]: 95%; % activity ([16]; 100 g active agent/100 kg): 84%; % activity ([16]; 150 g active agent/100 kg): 90%; % activity [6, 20]: 95%; % activity ([6]; winter barley, 25 g active agent/100 kg barley, about 8 months): 90%; % activity ([6]; winter barley, 75 g active agent/100 kg barley, about 8 months): 100%; % activity [8]: 96%"
"CSc1nnc(C#N)s1 [5-methylthio-1,3,4-thiadiazole-2-carbonitrile]",–,–,–,–,–,–,–,–,–,–,–,–,–,–,–,–,–,Percentage reduction of infestation ([12]; 50 mg per liter soil): 95%; Percentage reduction of infestation ([12]; 100 mg per liter soil): 99%; Percentage reduction of infestation ([12]; 200 mg per liter soil): 100%
Methoxyethyl-Hg--silicate [reference compound],–,–,–,–,–,–,–,–,–,–,–,–,–,–,–,–,–,"% activity ([15]; summer oats, 2.6 g active agent/100 kg, about 4 months): 99%; % activity ([15]; winter oats, 5.3 g active agent/100 kg, about 9 months): 99%; % activity ([3]; 0.2 g active agent per 100 kg): 63%; % activity ([3]; 0.5 g active agent per 100 kg): 91%; % activity ([3]; 1.0 g active agent per 100 kg): 98%; % activity ([16]; 16 g active agent/100 kg): 66%; % activity ([5]; 1.3 g active agent/100 kg seeds): 86%; % activity ([6]; summer barley, 5.2 g active agent/100 kg barley): 99.8%; % activity ([6]; summer barley, 10.4 g active agent/100 kg barley): 100%; % activity ([6]; winter barley, 2.6 g active agent/100 kg barley): 99.4%; % activity ([6]; winter barley, 5.2 g active agent/100 kg barley): 100%; % activity ([7]; 1.3 g active agent per 100 kg): 90%; % activity ([7]; 2.6 g active agent per 100 kg): 100%"

# From patent publication US4281121A, “1,3,4-Thiadiazole-2-carboxylic acid derivatives, process for making the same and fungicidal and nematocidal compositions containing same” (Schering Aktiengesellschaft, priority 1978, dated 1981)
